From article PMC12400753 (Respiratory Research, 2025) come the findings set out here.

One test has as its target LPAR1 (Homo sapiens, UniProt Q92633). The test is described as follows: LPAR1 calcium mobilization (reference compounds). Type of test: cell-based. How it is done: B. C. LPAR1 Averaged Data (n=4) 200 […] 125 Nonspecific Binding 2nM 600 Specific Binding 150 1nM 100 75 400 100 50 200 25 50 0 0 -25 0 2 4 6 8 10 120 -10 -9 -8 -7 -6 -5[3H]-PIPE-497 (nM) 0 25 50 75 100 125 log[PIPE-497], M Time Figure S3. PIPE- 497 is a potent L P AR 1 receptor antagonist with properties suitable as an in vivo radioligand. A. L P AR 1 calcium mobilization data showing that PIPE-497 (non-tritiated) is a p ot ent […] B. Saturation binding curves of 3H-PIPE-497 to huma n LPAR1 membranes (n=2, error bars are SEM). C. Binding kinetics of 3H-PIPE-497 in recombinant membranes. […] with 10 μM PIPE- 497 th en add ed to membranes at different time points resulting in a residence time of 16.2 minutes (n=4, error bars are SEM). […] At 10 mg/kg, th e free p las ma exposure of BM S -986278 exceeds its measured IC 5 0 up until 4 h p ost d ose. […] IC50 LPAR1)

In test [1] the test system is primary human lung fibroblasts. The test is described as follows: LPA-induced COL1A1 expression (immunocytochemistry). Type of test: cell-based. The conditions noted are these: Homo sapiens, Fibroblast; 1 µM LPA 8 h; compound overnight; read-out: IC50 inhibition of COL1A1 expression. How it is done:
COL1A1 assay: Primary human lung fibroblasts were plated in a 96-well plate and allowed to adhere. […] The next day, cells were treated with 1 µM LPA and incubated for 8 h. After incubation in LPA, cells were immunostained for COL1A1. Cells were fixed in formalin for 10 min, washed 3 x with PBS, incubated in collagen 1A1 antibody (1:250 in blocking buffer, 0.1% Triton X-100 in PBS, 2 h), and washed 3 x with PBS. Secondary antibody solution (1:500) and Hoechst (1:2000) were added for 1 h, washed 3 x in PBS then imaged on a Nikon A1R confocal microscope at 10x magnification except human lung fibroblasts which were imaged at 4x. Collagen area was quantified with ImageJ and normalized to Hoechst per image.

Chain of LPAR1 (Q92633 whole entry): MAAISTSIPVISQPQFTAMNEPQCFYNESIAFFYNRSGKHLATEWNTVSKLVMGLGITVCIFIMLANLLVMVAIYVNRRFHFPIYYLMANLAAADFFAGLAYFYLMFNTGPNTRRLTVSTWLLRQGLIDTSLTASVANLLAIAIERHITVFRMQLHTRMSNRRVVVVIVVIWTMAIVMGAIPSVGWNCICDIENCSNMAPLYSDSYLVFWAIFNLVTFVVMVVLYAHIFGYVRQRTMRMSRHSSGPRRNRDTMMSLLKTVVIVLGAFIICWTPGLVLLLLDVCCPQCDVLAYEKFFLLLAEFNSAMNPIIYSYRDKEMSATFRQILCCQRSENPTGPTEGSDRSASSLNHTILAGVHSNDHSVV

Broadly, the IC50 is the concentration that gives 50% inhibition. `CCCN(C)C(=O)OCc1c(-c2ccc(O[C@H]3CCC[C@H](C(=O)O)C3)c(C)n2)nnn1C` [BMS-986278, reference compound]: the IC50 on LPAR1 stood at 80.4 nM; in test [1] it was 30.6 nM.
